Measurements taken from patent US7968526B2, “Antisense oligonucleotides directed to ribonucleotide reductase R2 and uses thereof in the treatment of cancer” (Lorus Therapeutics Inc., priority 2003, dated 2011).
Entries after “also recorded” stand apart in the source; their conditions may differ.

Tests used:
[1] = tested on: MDA-CDDP-S4 human in vivo-selected Cisplatin-resistant breast adenocarcinoma cells; experiment: MDA-CDDP-S4 Cisplatin-resistant breast adenocarcinoma, fat pad, SCID mice (2.3); set-up: species or system human cells in mice
Protocol: BxPC-3 is a gemcitabine resistant call line. […] Gemcitabine was administered intravenously every three days at a dose of 100 mg/kg. Antitumour activities were estimated by the inhibition of tumour volume, which was measured with caliper. Each point represents mean tumour volume calculated from 10 animals per experimental group. […] Hela S3 is a hydroxyurea resistant cell line. […] Hydroxyurea was administered intraperitoneally every day at a dose of 250 mg/kg for 10 days. Cisplatin was administered intravenously once a week for three weeks at a dose of 4 mg/kg. Antitumour activities were estimated by the inhibition of tumour volume, which was measured with caliper. Each point represents mean tumour volume calculated from 10 animals per experimental group. […] Cisplatin was administered intravenously once a week for three weeks at a dose of 4 mg/kg. Taxol was administered intravenously once a week for three weeks at a dose of 10 mg/kg. Antitumour activities were estimated by the inhibition of tumour volume, which was measured with caliper. Each point represents mean tumour volume calculated from 10 animals per experimental group. […] Taxol was administered i.p. once a week at a dose of 10 mg/kg. Antitumour activities were estimated by the inhibition of tumour volume (FIG. 12A), which was measured with calipers. Each point represents mean tumour volume calculated from 10 animals per experimental group. Animals were sacrificed and tumour weights taken at the end of the study (FIG. 12C). […] Cisplatin was administered intravenously once a week for four weeks at a dose of 4 mg/kg. Taxol was administered intravenously once a week for four weeks at a dose of 20 mg/kg. Antitumour activities were estimated by the inhibition of tumour volume, which was measured with caliper. Each point represents mean tumour volume calculated from 9-10 animals per experimental group. […] Cisplatin was administered intravenously once a week for four weeks at a dose of 4 mg/kg. Antitumour activities were estimated by the inhibition of tumour volume, which was measured with caliper. Each point represents mean tumour volume calculated from 10 animals per experimental group. At the end of the study the animals were sacrificed and tumours weighed. […] Taxol was administered i.p. once a week at a dose of 10 mg/kg. Anti-tumour activity was estimated by the inhibition of tumour volume, which was measured with caliper. Each point represents mean tumour volume calculated from 10 animals per experimental group. In addition animals were sacrificed and tumour weights taken at the end of the study. […] CPT-11 was administered i.p. for 5 days at a dose of 20 mg/kg/day. Antitumour activities were estimated by the inhibition of tumour volume, which was measured with caliper. Each point represents mean tumour volume calculated from 10 animals per experimental group. Tumour weights were measured after animals were sacrificed at the end of the treatment. These cells are not resistant to CPT-11 which was used as a positive control.

[2] = tested on: human Burkitt's lymphoma (Raji) cells; experiment: Survival of SCID mice bearing human Burkitt's lymphoma (Raji); type: in vivo, human cells in mice
Protocol: Mice with established human Burkitt's lymphoma tumours were treated every second day with either saline or SEQ ID NO:1 for 44 days as described above. The control group mice all died from disease progression by day 20. At day 44, the SEQ ID NO:1 mice continued treatment on a weekly basis until stopping the treatment at day 73.
As an additional test of efficacy SEQ ID NO:1 was administered to SCID mice bearing active Burkitt's lymphoma (FIG. 30). Viable human Burkitt's lymphoma (Raji) cells (5×10^6) collected from subconfluent logarithmically growing cultures were injected i.v. into each animal and disease was allowed to establish for 2 days. SEQ ID NO:1, SEQ ID NO:3 and SEQ ID NO:2, in normal saline were administered by tail vein injection every second day at a dose of 10 mg/kg. At day 40 the treatment schedule was reduced to 10 mg/kg every 3 days. Control animals received saline alone, without oligonucleotide. Survival is presented as a percentage of the starting number of mice over time.

[3] = tested on: PC-3 human prostatic cancer cells; experiment: PC-3 prostatic tumour xenograft in SCID mice, combination with mitoxantrone (1.4); type: in vivo, human cells in mice; conditions: PC-3, SCID mice; SEQ ID NO:1 10 mg/kg i.v. every other day 18 times; mitoxantrone 2 mg/kg i.v. once
Protocol: After 52 days the mice were sacrificed and the tumours weighed. […] In both experiments, PC-3 human prostatic cancer cells (1×10^7 cells in 100 μl of PBS) were subcutaneously injected into the right flank of 6-7 weeks old male SCID mice. After the size of tumour reached an approximate volume of 50 mm^3, 14 days post tumour cell injection, SEQ ID NO: 1 was administered by bolus infusion into the tail vein every other day at 10 mg/kg 18 times (FIG. 4A) or 17 times (FIG. 4B), respectively. Control animals received saline alone for the same period. Antitumour effect of SEQ ID NO:1 was further compared to that of mitoxantrone (novantrone) alone or in combination. Mitoxantrone was administered intravenously once at the beginning of the treatments at a dose of 2 mg/kg (FIG. 4A) or once a week for four weeks at a reduced dose of 0.8 mg/kg (FIG. 4B). All treatments were stopped at day 50 (FIG. 4A) or 48 (FIG. 4B), respectively. A day after the last treatment, tumours were excised from the animals and their weights were measured. […] In both experiments, DU145 human prostatic cancer cells (1×10^7 cells in 100 μl of PBS) were subcutaneously injected into the right flank of 6-7 weeks old male SCID mice. After the size of tumour reached an approximate volume of 50 mm^3, 13 (FIG. 5A) or 11 (FIG. 5B) days post tumour cell injection, SEQ ID NO:1 was administered by bolus infusion into the tail vein every other day at 10 mg/kg 15 times (FIG. 5A) or 14 times (FIG. 5B), respectively. Control animals received saline alone for the same period. Antitumour effect of SEQ ID NO:1 was further compared to that of mitoxantrone (novantrone) alone or in combination. Mitoxantrone was administered intravenously once at the beginning of the treatments at a dose of 2 mg/kg (FIG. 5A) or once a week for four weeks at a reduced dose of 0.8 mg/kg (FIG. 5B). All treatments were stopped at day 42 (FIG. 5A) or 38 (FIG. 5B), respectively. A day after the last treatment, tumours were excised from the animals and their weights were measured.

[4] = tested on: mouse fibrosarcoma (R3) cells; experiment: Experimental metastasis of R3 cells treated ex vivo, lung nodules in C3H mice (4.1); conditions: for Formation of lung colonies / nodules: R3 cells treated with 0.2 μM + Lipofectin for 4 hr before i.v. injection into C3H mice
Protocol: • 4.1 Experimental metastasis of mouse fibrosarcoma (R3) cells treated with different antisense oligonucleotides in a syngenetic model was estimated as follows. Aliquots of R3 cell suspension were seeded into 100 mm tissue culture dishes at a density of 2×10^6 and incubated overnight at 37° C. in α-MEM medium supplemented with 10% FBS. Cells were washed once in 10 ml of PBS and treated with 0.2 μM of SEQ ID NO: 1 in the presence of cationic lipid (Lipofectin reagent, final concentration, 10 μg/ml, Gibco BRL) for 4 hr. Cells were treated with either saline alone (C) or lipofectin alone (RE) as controls. Oligonucleotide was removed by washing the cells once with PBS and the cells were trypsinized. Cells were then collected by centrifugation, and approximately 1×10^5 cells suspended in 0.2 ml of PBS were injected into the tail veins of 10 week-old C3H female mice. Estimates of the number of lung tumours were made 20 days later, after excised lungs from individual mice were stained with picric acid dye solution (75% picric acid, 20% formaldehyde, 5% glacial acetic acid). Bars represent mean number of tumour nodules in lungs obtained from 4 to 5 animals per experimental group. […] Aliquots of C8161 cell suspension were seeded into 100 mm tissue culture dishes at a density of 2×10^6 and incubated overnight at 37° C. in α-MEM medium supplemented with 10% FBS. Cells were washed once in 10 ml of PBS and treated with 0.2 μM of SEQ ID NO: 1 in the presence of cationic lipid (Lipofectin reagent, final concentration, 10 μg/ml, Gibco BRL) for 4 hr. Cells were treated with lipofectin alone (CONTROL) as a control. SEQ ID NO:1 was removed by washing the cells once with PBS and the cells were trypsinized. Cells were then collected by centrifugation, and approximately 1×10^5 cells suspended in 0.2 ml of PBS were injected into the tail veins of 6-8 week-old CD-1 athymic female nude mice. Estimates of the number of lung tumours were made 4 weeks later, after excised lungs from individual mice were stained with picric acid dye solution (75% picric acid, 20% formaldehyde, 5% glacial acetic acid). […]

Substance: 5′-GGCTAAATCGCTCCACCAAG-3′ (all phosphorothioate, sugars by position and methylation of C not given here) [SEQ ID NO: 1, fully phosphorothioated antisense oligonucleotide that hybridizes to the coding region of R2 mRNA]
- Tumour weight as % of saline control ([1]; MDA-CDDP-S4 (breast), Cisplatin resistant, SCID, SEQ ID NO:1 10 mg/kg i.v. every other day 9 times, Taxol 10 mg/kg, Cisplatin 4 mg/kg i.v. weekly x3): 32%
- Antitumour effect (FIG. 11) ([1]; MDA-CDDP-S4 Cisplatin-resistant, SCID mice, SEQ ID NO:1 10 mg/kg i.v. every other day, Cisplatin 4 mg/kg, Taxol 10 mg/kg i.v. weekly): significant reduction of tumour weight compared to saline control
- Survival of mice ([2]; SCID mice (Example 7, FIG. 30), 10 mg/kg i.v. every second day, from day 40 every 3 days, 10 mg/kg): survived to the end of the study; also recorded: dramatic increase in survival time of mice well beyond the treatment period
- Survival of mice ([2]; SCID mice, 10 mg/kg i.v. every second day, stopped at day 42, sacrificed day 73, untreated all died within 23 days): survived beyond day 73 except one mouse, which died at day 69
- Survival of mice ([2]; second independent study, every second day for 44 days then weekly until day 73, controls all died by day 20): All mice survived to the end of the experimental period (140 days)
- Antitumour effect (tumour weight, FIG. 4A) [3]: significant delay of tumour growth compared to saline control
- Decrease in the number of tumour metastases to lungs ([4]; Mouse Fibrosarcoma (ex vivo)): Decrease by approximately 65% in the number
- Formation of lung colonies / nodules [4]: significantly reduced the formation of lung colonies
- Formation of lung colonies / nodules ([4]; listed as SEQ ID NO:1): significantly reduces the extent of lung nodule formation
